Laboratory results reported in patent US20240408055A1 (priority 2021, published 2024).
Values after ≈ are worked out from the molar mass of the structure shown.

Tests used:
[1] = system: SARS-CoV-2 pseudovirus Wuhan D614; test: microbe, parasite or virus in culture; assay type: cell-based
Cathepsin L = Cathepsin L (Homo sapiens, UniProt P07711); test: Cathepsin L Inhibitor Screening Assay Kit (fluorescence); assay type: biochemical; settings: Cathepsin L 0.4 ng/group, 50 μL reaction; read-out: half maximal effective concentration (EC50) against Cathepsin L protease activity
Chain of Cathepsin L (P07711 114-333): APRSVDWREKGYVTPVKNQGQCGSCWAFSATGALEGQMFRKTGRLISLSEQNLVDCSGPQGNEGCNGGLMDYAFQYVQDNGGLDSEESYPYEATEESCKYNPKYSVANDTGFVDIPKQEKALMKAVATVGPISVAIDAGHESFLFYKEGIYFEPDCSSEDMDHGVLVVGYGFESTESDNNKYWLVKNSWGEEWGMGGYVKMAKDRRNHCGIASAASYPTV
Method: The Cathepsin L Fluorescence Assay Kit (Cathepsin L Inhibitor Screening Assay Kit, BPS BIOSCIENCE, 79591) was used in the biochemical test method. According to the manufacturer's manual, the inhibition activity was measured through continuous kinetic analysis, the samples containing Cathepsin L were reacted with a fluorescent substrate in mixing, and the measured fluorescence (λex=360 nm, λem=460 nm) readings were used. The E64 protease inhibitor was used as a positive control. The experiment was conducted in a 50 μL reaction system, with a single reaction dose of Cathepsin L at 0.4 ng/group, the E64 was used as the positive control of inhibition. The inhibitory impact of various concentrations of Anisomelic acid (0.5, 1, 2.5, 5, 10, 20, and 30 μM) against Cathepsin L protease activity was examined. As shown in the right graph of FIG. 5B, the significant inhibition of Anisomelic acid against Cathepsin L protease activity was found in a dose-dependent manner.

[2] = system: SARS-CoV-2 pseudovirus India B.1.617.1; test: microbe, parasite or virus in culture; assay type: cell-based
TMPRSS2 = target: T1, TMPRSS2 (Homo sapiens, UniProt O15393); test: TMPRSS2 Fluorogenic Assay Kit; assay type: biochemical; settings: TMPRSS2 150 ng/group, 50 μL reaction; read-out: half maximal effective concentration (EC50) against TMPRSS2 protease activity
T1 construct: purchased BPS BIOSCIENCE 78083
T1 sequence (O15393 whole entry): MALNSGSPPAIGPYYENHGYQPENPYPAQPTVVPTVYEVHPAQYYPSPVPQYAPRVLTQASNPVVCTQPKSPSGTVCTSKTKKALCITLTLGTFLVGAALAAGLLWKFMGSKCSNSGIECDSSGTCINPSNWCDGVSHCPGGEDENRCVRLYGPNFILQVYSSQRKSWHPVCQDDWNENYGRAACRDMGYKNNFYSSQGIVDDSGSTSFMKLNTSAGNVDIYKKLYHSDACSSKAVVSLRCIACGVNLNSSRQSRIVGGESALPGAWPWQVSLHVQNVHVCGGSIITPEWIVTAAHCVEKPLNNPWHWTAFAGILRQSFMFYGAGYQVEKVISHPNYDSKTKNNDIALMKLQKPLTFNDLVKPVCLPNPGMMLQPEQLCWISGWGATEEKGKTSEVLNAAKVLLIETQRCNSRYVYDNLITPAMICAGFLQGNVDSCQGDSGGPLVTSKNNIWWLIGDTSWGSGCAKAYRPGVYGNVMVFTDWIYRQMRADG
Method: In the biochemical experiments, TMPRSS2 Fluorescence Assay Kit (TMPRSS2 Fluorogenic Assay Kit, BPS BIOSCIENCE, 78083) was used in the test method. Inhibitory activity was measured by sequential kinetic analysis according to the manufacturer's manual, the inhibition activity was measured by using continuous kinetic analysis, the samples containing TMPRSS2 were reacted with a fluorescent substrate in a mixing, and a fluorescence (λex=383 nm, λem=455 nm) readings were used. Camostat protease inhibitor was used as a positive control. The experiment was performed in a 50 μL reaction system, the single reaction dose of TMPRSS2 was 150 ng/group, and 10 μM Camostat protease inhibitor was used as a positive control. The effect of Anisomelic acid on the inhibition of TMPRSS2 protease activity was examined by tested various concentrations of Anisomelic acid (0.5, 1, 2.5, 5, 10, 20 and 30 μM). A significant inhibition of Anisomelic acid against TMPRSS2 protease activity was found in a dose-dependent manner.

[3] = system: SARS-CoV-2 pseudovirus Uganda A23.1; test: microbe, parasite or virus in culture; assay type: cell-based
[4] = system: SARS-CoV-2 pseudovirus New York B.1.526; test: microbe, parasite or virus in culture; assay type: cell-based
[5] = system: SARS-CoV-2 pseudovirus Nigeria B.1.525; test: microbe, parasite or virus in culture; assay type: cell-based
[6] = system: SARS-CoV-2 pseudovirus Brazil P.1; test: microbe, parasite or virus in culture; assay type: cell-based
[7] = target: T2, SARS-CoV-2 main protease (Mpro) (Severe acute respiratory syndrome coronavirus 2, UniProt P0DTD1); assay type: biochemical; settings: read-out: half maximal effective concentration (EC50) against Mpro activity
T2 construct: a recombinant 2019-nCoV 3CL protease protein (Elabscience bio Inc) was used; purchased Elabscience bio Inc

SARS-CoV-2 = settings: mouse, in vivo
[8] = system: SARS-CoV-2 pseudovirus California B.1.429; test: microbe, parasite or virus in culture; assay type: cell-based
Cathepsin B = target: T3, Cathepsin B (Homo sapiens, UniProt P07858); test: Cathepsin B Inhibitor Screening Assay Kit (fluorescence); assay type: biochemical; settings: Cathepsin B 0.4 ng/group, 50 μL reaction; read-out: half maximal effective concentration (EC50) against Cathepsin B protease activity
T3 construct: purchased BPS BIOSCIENCE 79590
Method: In the biochemical test, the Cathepsin B Fluorescence Assay Kit (Cathepsin B Inhibitor Screening Assay Kit, BPS BIOSCIENCE, 79590) was used in the test method. According to the manufacturer's manual, the inhibition activity was measured through continuous kinetic analysis, the samples containing Cathepsin B were reacted with a fluorescent substrate in the mixing, and the measured fluorescence (λex=360 nm, λem=460 nm) readings were used. The E64 protease inhibitor was used as a positive control. The experiment was conducted in a 50 μL reaction system, with a single reaction dose of Cathepsin B at 0.4 ng/group, the E64 protease inhibitor were used as a positive control. The inhibitory impact of various concentrations of Anisomelic acid (0.5, 1, 2.5, 5, 10, 20, and 30 μM) against Cathepsin B protease activity was examined. The significant inhibition of Anisomelic acid against Cathepsin B protease activity was found in a dose-dependent manner.

[9] = system: SARS-CoV-2 pseudovirus South Africa B.1.351; test: microbe, parasite or virus in culture; assay type: cell-based
[10] = Severe acute respiratory syndrome-related coronavirus, Huh-7, read-out: IC50 inhibiting infection

Compound `C=C1C(=O)OC2/C=C(/C)CC/C=C(\C(=O)O)CC/C=C(\C)CCC12` (centres unmarked) [Anisomelic acid] has an IC50 inhibiting infection [1] of 3.50 µg/mL (≈ 10.6 µM), an EC50 (Cathepsin L) of 3.69 µM and an IC50 inhibiting infection [2] of 10.09 µg/mL (≈ 30.5 µM). It also gave an EC50 (TMPRSS2) of 6.51 µM, an IC50 inhibiting infection [3] of 15.53 µg/mL (≈ 47 µM) and an IC50 inhibiting infection [4] of 8.86 µg/mL (≈ 26.8 µM). The IC50 inhibiting infection [5] was 14.36 µg/mL (≈ 43.5 µM), the IC50 inhibiting infection [6] was 0.12 µg/mL (≈ 0.363 µM) and the EC50 [7] was 9.77 µM. The “changes in body weight of the mice” value (SARS-CoV-2) was “basically similar”, the “changes in the titers of coronavirus infection in the lungs of mice” value (SARS-CoV-2) was “better prevention and control effects” and the IC50 inhibiting infection [8] was 8.47 µg/mL (≈ 25.6 µM). For the same compound, the EC50 (Cathepsin B) was 4.23 µM and the IC50 inhibiting infection [9] was 27.55 µg/mL (≈ 83.4 µM).
In the case of `C=C1C(=O)O[C@@H]2/C=C(\C)C[C@H]3C=C(CC/C=C(\C)CC[C@@H]12)C(=O)O3` [Ovatodiolide], the IC50 inhibiting infection [1] is reported as 4.08 µg/mL (≈ 12.4 µM), the IC50 inhibiting infection [2] is reported as 15.27 µg/mL (≈ 46.5 µM) and the IC50 inhibiting infection [3] is reported as 6.72 µg/mL (≈ 20.5 µM). It also gave an IC50 inhibiting infection [4] of 11.35 µg/mL (≈ 34.6 µM), an IC50 inhibiting infection [5] of 8.24 µg/mL (≈ 25.1 µM) and an IC50 inhibiting infection [6] of 7.00 µg/mL (≈ 21.3 µM). For the same compound, the “changes in body weight of the mice” value (SARS-CoV-2) was “basically similar”, the IC50 inhibiting infection [8] was 12.09 µg/mL (≈ 36.8 µM) and the IC50 inhibiting infection [9] was 15.42 µg/mL (≈ 47 µM).
`CCC(CC)COC(=O)[C@H](C)N[P@](=O)(OC[C@H]1O[C@@](C#N)(c2ccc3c(N)ncnn23)[C@H](O)[C@@H]1O)Oc1ccccc1` [Remdesivir, reference compound] gave an IC50 [1, 10] of 2.96 µg/mL (≈ 4.91 µM), an IC50 [2, 10] of 11.9 µg/mL (≈ 19.8 µM) and an IC50 [3, 10] of 7.63 µg/mL (≈ 12.7 µM). The IC50 [4, 10] was 15 µg/mL (≈ 24.9 µM), the IC50 [5, 10] was 10.3 µg/mL (≈ 17.1 µM) and the IC50 [6, 10] was 13.8 µg/mL (≈ 22.8 µM). The “changes in body weight of the mice” value (SARS-CoV-2) was “basically similar”, the IC50 [8, 10] was 15.9 µg/mL (≈ 26.4 µM) and the IC50 [9, 10] was 27.2 µg/mL (≈ 45.2 µM).
